These results are taken from patent US9359372B2, “Hexahydrodibenzo[a,g]quinolizine compound, preparation method thereof, pharmaceutical composition and use thereof” (SHANGHAI INSTITUTE OF MATERIA MEDICA, CHINESE ACADEMY OF …, priority 2011, dated 2016).

The structures appear in SMILES notation.

For one series, the target named is D2 dopamine receptor (Rattus norvegicus (Rat), UniProt P61169). Description: Affinity on dopamine D2 receptor, competition with [3H] Spiperone. The format is binding. Details: D2 receptor inhibition ratio (%): concentration or dose not given beside the values. The note with it: for affinity on dopamine D2 receptor (in words): summary of the tables. On the procedure: (§1) (1). Determination of the Affinity of Hexahydrodibenzo[a,g]Quinolizine Compound of General Formula I and Derivatives Thereof on Dopamine D1, Dopamine D2, 5-HT1A, and 5-HT2A Receptor.
Sequence of D2 dopamine receptor (P61169 whole entry): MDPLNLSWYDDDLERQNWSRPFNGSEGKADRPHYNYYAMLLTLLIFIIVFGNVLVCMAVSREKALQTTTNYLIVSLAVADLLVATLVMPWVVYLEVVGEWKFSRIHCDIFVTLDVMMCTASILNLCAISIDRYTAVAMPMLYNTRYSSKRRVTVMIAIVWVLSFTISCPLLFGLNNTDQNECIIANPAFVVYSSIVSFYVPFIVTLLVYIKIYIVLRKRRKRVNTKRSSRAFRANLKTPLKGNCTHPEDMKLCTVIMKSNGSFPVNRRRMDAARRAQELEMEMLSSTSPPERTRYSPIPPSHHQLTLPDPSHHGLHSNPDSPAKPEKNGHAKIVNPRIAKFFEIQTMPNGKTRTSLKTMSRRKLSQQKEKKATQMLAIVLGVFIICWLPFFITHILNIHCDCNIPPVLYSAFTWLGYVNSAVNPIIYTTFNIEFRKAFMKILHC
(§2) 1) The Experimental Method
(§3) Different concentrations (10^−5 M-10^−11 M) of the compound of the invention and corresponding isotope receptor ligand as well as receptor protein were loaded into the reaction tube and incubated in 30° C. water bath for 60 minutes. The reaction was terminated in a refrigerator. The reaction mixture was put in a Millipore filter (millipore) cell sample collector, filtered through suction filtration using GF/C glass fiber filter paper, and dried. The resulting sample was placed into 0.5 mL tube. 500 μL liquid scintillation fluid was added and intensity of radioactivity was determined by counting.
(§4) (1) Construction of receptor and materials for cell culture: Escherichia coli. DH5α strain; insect virus transfer vector pVL1393 plasmid; BaculoGold linear Chinese baculovirus DNA, purchased from ParMingen company; mkD1RcDNA; rD2R cDNA; various restriction endonucleases, TaqDNA polymerase, T4 ligase, etc., LB medium; insect cell culture TNM-FH.
(§5) (2) the Experimental Materials for Receptor Binding
(§6) Firstly, the above […] are dissolved in DMSO and then diluted with double distilled water to the appropriate concentration (10^−5 M-10^−11 M).
(§7) (+) Butaclamo purchased from RBI company, GF/C glass fiber filter paper purchased from Whatman Co., scintillation fluid (dopamine D1, D2 receptors)/liposoluble scintillation fluid (5-HT1A, 5-HT2A receptor), Beckman LS-6500 multi-function liquid scintillation counter.

A further series deals with 5-HT2A receptor (Homo sapiens (Human), UniProt P28223). Put plainly: Affinity on 5-HT2A receptor, competition with [3H]-Ketanserin. The format is binding. On the procedure:
as §1, §2, §3, §5, §6, §7

The target in a further series is dopamine D1 receptor (Macaca mulatta (Rhesus macaque), UniProt O77680). Description: Affinity on dopamine D1 receptor, competition with [3H] SCH23390. Details: D1 receptor inhibition ratio (%): concentration or dose not given beside the values. The format is binding. The note with it: for affinity on dopamine D1 receptor (in words): summary of the tables. On the procedure:
as §1, §2, §3, §4, §5, §6, §7

A further series concerns the target 5-HT1A receptor (Homo sapiens (Human), UniProt P08908). Description: Affinity on 5-HT1A receptor, competition with [3H] 8-OH-DPAT. The series is classed as binding. On the procedure:
as §1, §2, §3, §5
8-OH-DPAT; 5-HT1A receptor protein expressed in HEK-293 cells;
as §6, §7

Series [1] deals with T1, dopamine D2 receptor (Homo sapiens (Human), UniProt P14416). Description: Inhibition property on dopamine D2 receptor, cAMP detection in CHO cells stably expressing D2 receptor. The format is cell-based. Particulars: 10 μM Forskoline and 10 μM dopamine, read-out: D2 receptor Antagonist IC50. On the procedure: 2. Determination of the Inhibition Property of Hexahydrodibenzo[a,g]Quinolizine Compound of General Formula I and Derivatives Thereof on Dopamine D2 Receptor.
T1 sequence (P14416 whole entry, species assumed): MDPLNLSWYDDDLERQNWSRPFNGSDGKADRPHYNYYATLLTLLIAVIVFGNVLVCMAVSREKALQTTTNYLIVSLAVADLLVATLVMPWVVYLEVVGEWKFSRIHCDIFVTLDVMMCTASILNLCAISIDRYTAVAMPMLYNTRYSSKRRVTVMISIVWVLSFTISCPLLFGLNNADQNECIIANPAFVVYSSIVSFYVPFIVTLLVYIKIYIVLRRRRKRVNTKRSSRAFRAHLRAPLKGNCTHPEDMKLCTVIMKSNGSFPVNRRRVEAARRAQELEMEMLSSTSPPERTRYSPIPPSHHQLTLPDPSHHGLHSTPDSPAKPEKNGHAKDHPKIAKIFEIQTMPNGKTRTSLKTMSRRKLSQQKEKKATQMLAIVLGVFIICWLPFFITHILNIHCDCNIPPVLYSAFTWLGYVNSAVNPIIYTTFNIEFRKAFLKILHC
(1) The Experimental Method
Each medicament was dissolved in serum-free F12 culture medium containing 100 μM of IBMX. CHO cells which can stably express D2 receptor were pre-incubated at 37° C. for 10 min, and then 10 μM Forskoline and 10 μM Dopanie were added at the same time to react for 10 min. 100 μL, of pre-cooled 1 M of HClO4 was added and the reaction was terminated at 4° C. for 1 hour. 20 μL of 2 M K2CO3 was added to neutralize the reaction. […] A certain amount of the supernatant was taken for cAMP detection.

The target of series [2] is T1, dopamine D2 receptor. Description: Radioligand binding assay, D2 receptor, HEK293T membrane homogenates. More on the design: D2 Inhibition (%): concentration or dose not given beside the values. Particulars: HEK293T membranes, [3H]Spiperone. As to the method: (§8) The affinity of compounds to D1 and D2 dopamine receptors were determined by competition binding assays. Membrane homogenates of HEK293T cells were stably transfected with D1, or D2 receptors. […] The reaction was started by addition of membranes ([…]) and stopped by rapid filtration through Whatman GF/B glassfiber filter and subsequently washed with cold buffer (50 mM Tris, 5 mM EDTA, pH 7.4) using a Brandel 24-well cell harvester. Scintillation cocktail was added and the radioactivity was determined in a MicroBeta liquid scintillation counter. The IC50 and Ki values were calculated by nonlinear regression (PRISM, Graphpad, San Diego, Calif.) using a sigmoidal function.

The target in another series is D1 dopamine receptors (Homo sapiens (Human), UniProt P21728). Put plainly: Radioligand binding assay, D1 receptor, HEK293T membrane homogenates. Particulars: HEK293T membranes, [3H]SCH23390. On the procedure: as §8
Sequence of D1 dopamine receptors (P21728 whole entry): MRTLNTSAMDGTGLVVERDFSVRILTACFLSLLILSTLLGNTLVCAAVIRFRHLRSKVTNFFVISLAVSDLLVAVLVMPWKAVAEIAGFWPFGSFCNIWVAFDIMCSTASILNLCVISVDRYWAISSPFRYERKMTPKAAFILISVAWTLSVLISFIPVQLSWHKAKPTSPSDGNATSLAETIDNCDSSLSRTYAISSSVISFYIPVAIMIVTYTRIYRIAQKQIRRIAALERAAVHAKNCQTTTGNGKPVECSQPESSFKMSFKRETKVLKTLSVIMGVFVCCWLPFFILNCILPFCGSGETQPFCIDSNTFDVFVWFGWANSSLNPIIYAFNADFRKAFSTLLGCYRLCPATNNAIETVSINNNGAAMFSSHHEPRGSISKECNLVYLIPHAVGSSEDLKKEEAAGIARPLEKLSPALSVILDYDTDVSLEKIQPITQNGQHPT
The next series has as its target D1 receptor (Homo sapiens (Human), UniProt P21728). Put plainly: [35S]GTPγS binding assay for D1 receptor. The series is classed as biochemical. The note with it: for D1 antagonist Imax % / IC50: [35S]GTPγS binding; for IC50: read-out: D1 antagonist IC50; for D1 receptor antagonistic activity (in words) / D1 receptor selectivity (in words): summary of Table 10.
For series [3] the following is noted: according to CN101037436; cited from earlier work.

Sequence of 5-HT1A receptor (P08908 whole entry): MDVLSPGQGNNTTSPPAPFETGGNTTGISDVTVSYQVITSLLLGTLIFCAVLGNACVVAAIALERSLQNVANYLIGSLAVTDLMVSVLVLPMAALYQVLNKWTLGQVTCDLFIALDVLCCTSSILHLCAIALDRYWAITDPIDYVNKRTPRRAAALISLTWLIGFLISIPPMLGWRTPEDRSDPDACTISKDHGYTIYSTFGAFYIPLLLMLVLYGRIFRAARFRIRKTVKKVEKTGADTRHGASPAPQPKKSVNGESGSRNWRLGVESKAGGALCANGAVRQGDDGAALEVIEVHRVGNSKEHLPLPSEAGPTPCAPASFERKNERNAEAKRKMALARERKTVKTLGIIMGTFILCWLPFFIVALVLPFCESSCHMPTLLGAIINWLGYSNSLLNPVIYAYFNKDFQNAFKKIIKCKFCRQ
Sequence of D1 receptor (P21728 whole entry): as the sequence (P21728 whole entry) above
Sequence of 5-HT2A receptor (P28223 whole entry): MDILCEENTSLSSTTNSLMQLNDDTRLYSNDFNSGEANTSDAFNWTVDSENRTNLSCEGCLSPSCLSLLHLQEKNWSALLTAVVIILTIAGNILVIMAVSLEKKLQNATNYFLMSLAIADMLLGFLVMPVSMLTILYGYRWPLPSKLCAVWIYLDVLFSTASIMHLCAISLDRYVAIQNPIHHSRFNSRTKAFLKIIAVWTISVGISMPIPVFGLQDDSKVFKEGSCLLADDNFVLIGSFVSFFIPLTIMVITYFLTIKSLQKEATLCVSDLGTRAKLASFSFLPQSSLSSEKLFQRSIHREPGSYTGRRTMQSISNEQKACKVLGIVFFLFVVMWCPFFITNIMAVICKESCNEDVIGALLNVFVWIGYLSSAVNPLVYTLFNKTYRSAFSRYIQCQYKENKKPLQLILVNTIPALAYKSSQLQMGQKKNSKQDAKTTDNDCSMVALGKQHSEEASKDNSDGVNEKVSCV
Sequence of dopamine D1 receptor (O77680 whole entry): as the sequence (P21728 whole entry) above, with N311I counted along it

Regarding `COc1ccc(OC)c2c1C[C@H]1c3cc4c(cc3CCN1C2)OCCO4` [DC037032], at D2 dopamine receptor, the “D2 receptor inhibition ratio (%)” value is 28.67% and the “affinity on dopamine D2 receptor (in words)” value is reported as “strong affinity”. The “5-HT2A receptor inhibition ratio (%)” value at 5-HT2A receptor is 37.75%. For the same compound, on dopamine D1 receptor, the “D1 receptor inhibition ratio (%)” value came out at 99.21%, the IC50 worked out at 49.2 nM, the inhibition constant Ki turned out to be 25.2 nM and the “affinity on dopamine D1 receptor (in words)” value is “strong affinity”. Moreover, on 5-HT1A receptor, the “5-HT1A receptor inhibition ratio (%)” value is recorded as 95.36%, the IC50 stood at 51.5 nM and the Ki came out at 40.6 nM.

As to `COc1cc2c(cc1OC)[C@@H]1Cc3cc(C)cc(C)c3CN1CC2` [DC037017, S-(−)-2,3-bimethoxy-9,11-dimethyl-5,8,13,13a-tetrahydro-6H-dibenzo[a,g]quinolizine], at D2 dopamine receptor, the “D2 receptor inhibition ratio (%)” value came out at 97.4%, the IC50 was found to be 1160 nM and the Ki turned out to be 224 nM. Also, the IC50 on dopamine D2 receptor [1] is 16200 nM. At dopamine D1 receptor, the “D1 receptor inhibition ratio (%)” value was determined as 94.5%, the IC50 came out at 684 nM and the Ki was 338 nM.

As to `COc1cc2c(c(OC)c1)CN1CCc3cc(OC)c(O)cc3[C@@H]1C2` [DC037079, (S)-2-hydroxy-3,9,11-trimethoxy-5,8,13,13a-tetrahydro-6H-dibenzo-[a,g]quinolizine], at D2 dopamine receptor, the “D2 receptor inhibition ratio (%)” value is 76.21% and the “affinity on dopamine D2 receptor (in words)” value is on record as “strong affinity”. For the same compound, the “D2 Inhibition (%)” value at dopamine D2 receptor [2] is recorded as 83.31%. Further, the Ki at D1 dopamine receptors stood at 2.53 ± 0.16 nM. On dopamine D1 receptor, the “D1 receptor inhibition ratio (%)” value was found to be 99.99%, the IC50 amounted to 9.85 nM, the Ki is 5.18 nM and the “affinity on dopamine D1 receptor (in words)” value is recorded as “strong affinity”. For the same compound, on D1 receptor, the “D1 antagonist Imax %” value stood at 94.2 ± 1.5%, the IC50 was 1400 ± 200 nM, the “D1 receptor antagonistic activity (in words)” value is “D1 receptor antagonistic activity” and the “D1 receptor selectivity (in words)” value was “good D1 receptor selectivity”.

Regarding `COc1cc2c(c(OC)c1)CN1CCc3cc(OC)c(OC)cc3[C@@H]1C2` [DC037075, (S)-2,3,9,11-tetramethoxy-5,8,13,13a-tetrahydro-6H-dibenzo[a,g]quinolizine], the “D2 receptor inhibition ratio (%)” value at D2 dopamine receptor was 39.50%. The “5-HT2A receptor inhibition ratio (%)” value on 5-HT2A receptor amounted to 54.04%. At dopamine D1 receptor, the “D1 receptor inhibition ratio (%)” value amounted to 97.88%, the IC50 came out at 114 nM and the inhibitory constant (Ki) is 64.1 nM. Besides, at 5-HT1A receptor, the “5-HT1A receptor inhibition ratio (%)” value turned out to be 90.77%, the IC50 amounted to 922 nM and the Ki was determined as 730 nM.

As to `COc1cc2c(cc1OC)[C@@H]1Cc3c(OC)ccc(OC)c3CN1CC2` [DC037008, S-(−)-2,3,9,12-tetramethoxy-5,8,13,13a-tetrahydro-6H-dibenzo[a,g]quinolizine], on D2 dopamine receptor, the “D2 receptor inhibition ratio (%)” value was 92.8%, the IC50 was determined as 1730 nM and the Ki came to 334 nM. Also, at dopamine D2 receptor [1], the IC50 worked out at 4030 nM. At dopamine D1 receptor, the “D1 receptor inhibition ratio (%)” value was 101.0%, the IC50 worked out at 101 nM and the Ki came out at 50.1 nM.

As to `COc1cc2c(cc1OC)C1Cc3cc(C)cc(C)c3CN1CC2` (racemic) [DC037018, (±)-2,3-bimethoxy-9,11-dimethyl-5,8,13,13a-tetrahydro-6H-dibenzo[a,g]quinolizine], on D2 dopamine receptor, the “D2 receptor inhibition ratio (%)” value is on record as 77.4%. On dopamine D2 receptor [1], the IC50 came to 15600 nM. For the same compound, at dopamine D1 receptor, the “D1 receptor inhibition ratio (%)” value was found to be 82.5%, the IC50 is 2920 nM and the Ki turned out to be 1440 nM.

As for `COc1cc2c(cc1OC)CN1CCc3cc(O)c(O)cc3C1C2` (racemic) [DC037024, (±)-2,3-bihydroxy-10,11-bimethoxy-5,8,13,13a-tetrahydro-6H-dibenzo[a,g]quinolizine], the “D2 receptor inhibition ratio (%)” value at D2 dopamine receptor is 76.2%. Further, on dopamine D2 receptor [1], the IC50 stood at 591 nM. Besides, at dopamine D1 receptor, the “D1 receptor inhibition ratio (%)” value was 91.3%, the IC50 was 1500 nM and the Ki came out at 741 nM.

With `COc1cc2c(cc1O)[C@@H]1Cc3ccc(O)c(OC)c3CN1CC2` [l-SPD, l-Stepholidine], the oral bioavailability in series [3] is 6.83%.

As for `COc1cc2c(cc1OC)C1Cc3c(OC)ccc(OC)c3CN1CC2` (racemic) [DC037003, (±)-2,3,9,12-tetramethoxy-5,8,13,13a-tetrahydro-6H-dibenzo[a,g]quinolizine], the “D2 receptor inhibition ratio (%)” value at D2 dopamine receptor came out at 75.75%. In addition, on dopamine D2 receptor [1], the IC50 worked out at 3300 nM. Also, on dopamine D1 receptor, the “D1 receptor inhibition ratio (%)” value is recorded as 98.0%, the IC50 amounted to 370 nM and the Ki is 247 nM.

Regarding `COc1cc2c(cc1O)[C@@H]1Cc3c(OC)ccc(OC)c3CN1CC2` [DC037030, S-(−)-2-hydroxy-3,9,12-trimethoxy-5,8,13,13a-tetrahydro-6H-dibenzo[a,g]quinolizine], at D2 dopamine receptor, the “D2 receptor inhibition ratio (%)” value is recorded as 74.27% and the “affinity on dopamine D2 receptor (in words)” value is “strong affinity”. Besides, at dopamine D2 receptor [2], the “D2 Inhibition (%)” value is listed as 74.27%. The compound also had a Ki at D1 dopamine receptors of 3.7 ± 0.26 nM. Besides, at 5-HT2A receptor, the “5-HT2A receptor inhibition ratio (%)” value stood at 39.99%. Moreover, at dopamine D1 receptor, the “D1 receptor inhibition ratio (%)” value was found to be 99.89%, the IC50 was 7.22 nM, the Ki was 3.7 nM and the “affinity on dopamine D1 receptor (in words)” value is “strong affinity”. Also, at 5-HT1A receptor, the “5-HT1A receptor inhibition ratio (%)” value worked out at 80.41%, the IC50 was 626 nM and the Ki was found to be 493 nM. Also, at D1 receptor, the “D1 antagonist Imax %” value was 86.8 ± 1.6%, the IC50 was 1900 ± 400 nM, the “D1 receptor antagonistic activity (in words)” value is “D1 receptor antagonistic activity” and the “D1 receptor selectivity (in words)” value is “good D1 receptor selectivity”.

On to `COc1cc(OC)c2c(c1CO)C[C@H]1c3cc4c(cc3CCN1C2)OCO4` [DC037077, (S)-2,3-methylenedioxy-9,11-bimethoxy-12-hydroxymethyl-5,8,13,13a-tetrahydro-6H-dibenzo[a,g]quinolizine], for which the “D2 receptor inhibition ratio (%)” value at D2 dopamine receptor was 41.75%. Further, the “5-HT2A receptor inhibition ratio (%)” value at 5-HT2A receptor is 45.63%. Moreover, on dopamine D1 receptor, the “D1 receptor inhibition ratio (%)” value was 97.33%, the IC50 stood at 324 nM and the Ki was 182 nM. Moreover, on 5-HT1A receptor, the “5-HT1A receptor inhibition ratio (%)” value is listed as 88.63%, the IC50 came out at 758 nM and the Ki is 600 nM.
